Test results published in US20240262815A1, “HETEROARYL DERIVATIVE, METHOD FOR PREPARING SAME, AND PHARMACEUTICAL COMPOSITION COMPRISING SAME AS ACTIVE INGREDIENT” (VORONOI INC., priority 2021, published 2024).

Test system: SK-BR-3 cancer cells
Experiment: Inhibitory activity against proliferation of SK-BR-3 cancer cells (CellTiter-Glo)
Format: cell-based
Settings: Homo sapiens, SK-BR-3, 120 h, ErbB2-overexpressing SK-BR-3 cells, 120 hours after treatment
Method: To evaluate the inhibitory activity of a compound according to the present invention against the proliferation of ErbB2-overexpressing cancer cells, the following experiment were performed.
10% FBS-added McCOY'S 5A was used for SK-BR-3 cancer cells. 20% FBS-added RPMI-1640 was used for BT-474 cancer cells. Transduced Ba/F3 cells were cultured in a RPMI-1640 medium to which 1 μg/ml puromycin (Invitrogen) was added.
48 hours before compound treatment, each type of the SK-BR-3 and BT-474 cells were seeded at 5,000 cells/well in a white clear bottom 96 well plate (Corning). The compound was diluted in dimethyl sulfoxide (SK-BR-3: 3-fold dilution, a total of 12 concentrations, BT-474: […], a total of 12 concentrations) and injected at 1 μl to have the final concentration of 0.2 nM to 5 μM. As for measurement of live cells, 120 hours after treatment with the compound, a CellTiter-Glo luminescent cell-viability reagent (Promega) was used to store the cells at room temperature for 10 minutes, followed by measurement of luminescence using a reader (SynergyNeo, Biotek). Each test was repeated three times.
The result values were calculated as a cell growth rate (%) compared to the control group. A graph was plotted using the GraphPad Prism version 8.3.0 program, and GI50 values were calculated.

GI50 [nM]	SMILES
< 50	C=CC(=O)Nc1cc(Nc2cc(N3OCC[C@@H]3c3cccc(-c4cccc(F)c4)c3F)ncn2)c(OC)cc1N1CCC(N2CCN(C3CC3)CC2)CC1 [Example 252, (R)-N-(2-(4-(4-cyclopropylpiper-azin-1-yl)piper-idin-1-yl)-5-((6-(3-(2,3′-difluoro-[1,1′-biphenyl]-3-yl)isoxazolidin-2-yl)pyrimidin-4-yl)-amino)-4-methoxy-phenyl)acrylamide]
< 50	C=CC(=O)Nc1cc(Nc2cc(N3OCC[C@@H]3c3cccc(C(=O)NC4CCCCC4)c3)ncn2)c(OC)cc1N1CCC(N2CCN(C3CC3)CC2)CC1 [Example 254, (R)-3-(2-(6-((5-acrylamido-4-(4-(4-cyclopropyl-piperazin-1-yl)-piperidin-1-yl)-2-methoxyphenyl)-amino)pyrimidin-4-yl)isoxazolidin-3-yl)-N-cyclohex-ylbenzamide]
50 to 500	COc1cc(F)c(NC(=O)/C=C/CN(C)C)cc1Nc1cc(N2OCC[C@@H]2c2ccc(F)c(OCc3cccc(F)c3)c2)ncn1 [Example 255, (R,E)-4-(dimethyl-amino)-N-(2-fluoro-5-((6-(3-(4-fluoro-3-((3-fluorobenzyl)oxy)-phenyl)isoxazol-idin-2-yl)pyrim-idin-4-yl)amino)-4-methoxyphen-yl)but-2-enamide]
< 50	C=CC(=O)Nc1cc(Nc2cc(N3OCC[C@@H]3c3cccc(-c4cnc5ccnn5c4)c3)ncn2)c(OC)cc1N1CCN(C)CC1 [Example 262, (R)-N-(4-methoxy-2-(4-methylpiper-azin-1-yl)-5-((6-(3-(3-(pyrazolo[1,5-a]pyrimidin-6-yl)-phenyl)isoxazol-idin-2-yl)pyrim-idin-4-yl)amino)-phenyl)acrylamide]
< 50	C=CC(=O)Nc1cc(Nc2cc(N3OCC[C@@H]3c3cccc(-c4cnc5ccnn5c4)c3)ncn2)c(OC)cc1N1CCOCC1 [Example 264, (R)-N-(4-methoxy-2-morpholino-5-((6-(3-(3-(pyraz-olo[1,5-a]pyrim-idin-6-yl)phenyl)-isoxazolidin-2-yl)-pyrimidin-4-yl)-amino)phenyl)-acrylamide]
< 50	C=CC(=O)Nc1cc(Nc2cc(N3OCCC3c3cccc(-c4cc(F)cc(F)c4)c3)ncn2)c(OC)cc1N1CCN(C)CC1 (stereo not shown) [Example 267, N-(5-((6-(3-(3′,5′-difluoro-[1,1′-biphenyl]-3-yl)-isoxazolidin-2-yl)-pyrimidin-4-yl)-amino)-4-methoxy-2-(4-methylpiper-azin-1-yl)phenyl)-acrylamide]
< 50	C=CC(=O)Nc1cc(Nc2cc(N3OCC[C@@H]3c3cccc(-c4ccn5ncnc5c4)c3)ncn2)c(OC)cc1N1CCN(C)CC1 [Example 268, (R)-N-(5-((6-(3-(3-([1,2,4]triazolo-[1,5-a]pyridin-7-yl)phenyl)isoxazol-idin-2-yl)pyrim-idin-4-yl)amino)-4-methoxy-2-(4-methylpiperazin-1-yl)phenyl)-acrylamide]
< 50	C=CC(=O)Nc1cc(Nc2cc(N3OCC[C@@H]3c3cccc(-c4cc(F)cc(F)c4)c3)ncn2)c(OC)cc1N1CCO[C@H](C)C1 [Example 270, N-(5-((6-((R)-3-(3′,5′-difluoro-[1,1′-biphenyl]-3-yl)-isoxazolidin-2-yl)-pyrimidin-4-yl)-amino)-4-methoxy-2-((R)-2-methyl-morpholino)phen-yl)acrylamide]

More lines, now with the values behind:

SMILES	GI50 [nM]
C=CC(=O)Nc1cc(Nc2cc(N3OCC[C@H]3c3cccc(-c4cccc(F)c4)c3F)ncn2)c(OC)cc1N1CCC(N2CCN(C3CC3)CC2)CC1 [Example 251, (S)-N-(2-(4-(4-cyclopropylpiper-azin-1-yl)piper-idin-1-yl)-5-((6-(3-(2,3′-difluoro-[1,1′-biphenyl]-3-yl)-isoxazolidin-2-yl)-pyrimidin-4-yl)-amino)-4-methoxy-phenyl)acrylamide]	500 to 5000
C=CC(=O)Nc1cc(Nc2cc(N3OCC[C@@H]3c3ccc(C)c(OCc4cccc(F)c4)c3)ncn2)c(OC)cc1N1CCN(C)CC1 [Example 256, (R)-N-(5-((6-(3-(3-((3-fluorobenz-yl)oxy)-4-methyl-phenyl)isoxazol-idin-2-yl)pyrim-idin-4-yl)amino)-4-methoxy-2-(4-methylpiperazin-1-yl)phenyl)-acrylamide]	50 to 500
C=CC(=O)Nc1cc(Nc2cc(N3OCC[C@@H]3c3ccc(C)c(OCc4cccc(F)c4)c3)ncn2)c(OC)cc1N(C)CCN(C)C [Example 257, (R)-N-(2-((2-(dimethylamino)-ethyl)(methyl)-amino)-5-((6-(3-(3-((3-fluorobenz-yl)oxy)-4-methyl-phenyl)isoxazol-idin-2-yl)pyrim-idin-4-yl)amino)-4-methoxyphen-yl)acrylamide]	< 50
C=CC(=O)Nc1cc(Nc2cc(N3OCC[C@@H]3c3ccc(C)c(OCc4cccc(F)c4)c3)ncn2)c(OC)cc1F [Example 258, (R)-N-(2-fluoro-5-((6-(3-(3-((3-fluorobenzyl)oxy)-4-methylphenyl)-isoxazolidin-2-yl)-pyrimidin-4-yl)-amino)-4-methoxy-phenyl)acrylamide]	500 to 5000
C=CC(=O)Nc1cc(Nc2cc(N3OCC[C@@H]3c3ccc(F)c(Oc4cccc(C(F)(F)F)c4)c3)ncn2)c(OC)cc1N1CCN(C)CC1 [Example 259, (R)-N-(5-((6-(3-(4-fluoro-3-(3-(trifluoromethyl)-phenoxy)phenyl)-isoxazolidin-2-yl)-pyrimidin-4-yl)-amino)-4-meth-oxy-2-(4-methyl-piperazin-1-yl)-phenyl)acrylamide]	50 to 500
C=CC(=O)Nc1cc(Nc2cc(N3OCC[C@@H]3c3ccc(F)c(Oc4cccc(C(F)(F)F)c4)c3)ncn2)c(OC)cc1N(C)CCN(C)C [Example 260, (R)-N-(2-((2-(dimethylamino)-ethyl)(methyl)-amino)-5-((6-(3-(4-fluoro-3-(3-(trifluoromethyl)-phenoxy)phenyl)-isoxazolidin-2-yl)-pyrimidin-4-yl)-amino)-4-methoxy-phenyl)acrylamide]	50 to 500
C=CC(=O)Nc1cc(Nc2cc(N3OCCC3c3cccc(-c4cccc(F)c4)c3)ncn2)c(OC)cc1N(C)CCN(C)C (stereo not shown) [Example 261, N-(2-((2-(dimeth-ylamino)ethyl)-(methyl)amino)-5-((6-(3-(3′-fluoro-[1,1′-biphenyl]-3-yl)isoxazolidin-2-yl)pyrimidin-4-yl)-amino)-4-methoxy-phenyl)acrylamide]	< 50
C=CC(=O)Nc1cc(Nc2cc(N3OCC[C@@H]3c3cccc(-c4cnc5ccnn5c4)c3)ncn2)c(OC)cc1N(C)CCN(C)C [Example 263, (R)-N-(2-((2-(dimethylamino)-ethyl)(methyl)-amino)-4-methoxy-5-((6-(3-(3-(pyr-azolo[1,5-a]pyrim-idin-6-yl)phenyl)-isoxazolidin-2-yl)-pyrimidin-4-yl)-amino)phenyl)-acrylamide]	< 50
C=CC(=O)Nc1cc(Nc2cc(N3OCC[C@@H]3c3cccc(-c4ccc5ncnn5c4)c3)ncn2)c(OC)cc1N1CCN(C)CC1 [Example 266, (R)-N-(5-((6-(3-(3-([1,2,4]triazolo-[1,5-a]pyridin-6-yl)phenyl)isoxazol-idin-2-yl)pyrim-idin-4-yl)amino)-4-methoxy-2-(4-methylpiperazin-1-yl)phenyl)acryl-amide]	< 50
C=CC(=O)Nc1cc(Nc2cc(N3OCC[C@@H]3c3cccc(-c4cc(F)cc(F)c4)c3)ncn2)c(OC)cc1N1CCC(N2CCN(C3CC3)CC2)CC1 [Example 269, (R)-N-(2-(4-(4-cyclopropylpiper-azin-1-yl)piper-idin-1-yl)-5-((6-(3-(3′,5′-difluoro-[1,1′-biphenyl]-3-yl)isoxazolidin-2-yl)pyrimidin-4-yl)-amino)-4-methoxy-phenyl)acrylamide]	< 50
C=CCN1CCN(c2cc(OC)c(Nc3cc(N4OCC[C@@H]4c4cccc(-c5cc(F)cc(F)c5)c4)ncn3)cc2NC(=O)C=C)CC1 [Example 271, (R)-N-(2-(4-allyl-piperazin-1-yl)-5-((6-(3-(3′,5′-difluoro-[1,1′-biphen-yl]-3-yl)-isoxazolidin-2-yl)-pyrimidin-4-yl)-amino)-4-methoxy-phenyl)acrylamide]	< 50
C=CC(=O)Nc1cc(Nc2cc(N3OCC[C@@H]3c3cccc(-c4cc(F)cc(F)c4)c3)ncn2)c(OC)cc1N1CCC(N2CCOCC2)CC1 [Example 272, (R)-N-(5-((6-(3-(3′,5′-difluoro-[1,1′-biphenyl]-3-yl)-isoxazolidin-2-yl)-pyrimidin-4-yl)-amino)-4-methoxy-2-(4-morpholino-piperidin-1-yl)-phenyl)acrylamide]	< 50
C=CC(=O)Nc1cc(Nc2cc(N3OCC[C@@H]3c3cccc(-c4cc(F)cc(F)c4)c3)ncn2)c(OC)cc1N(C)CCN(C)C [Example 277, (R)-N-(5-((6-(3-(3′,5′-difluoro-[1,1′-biphenyl]-3-yl)-isoxazolidin-2-yl)-pyrimidin-4-yl)-amino)-2-((2-(dimethylamino)-ethyl)(methyl)-amino)-4-methoxy-phenyl)acrylamide]	< 50
C=CC(=O)Nc1cc(Nc2cc(N3OCC[C@@H]3c3cccc(-c4cccc(F)c4)c3)ncn2)c(OC)cc1N1CCNC2(CC2)C1 [Example 291, (R)-N-(5-((6-(3-(3′-fluoro-[1,1′-biphenyl]-3-yl)-isoxazolidin-2-yl)-pyrimidin-4-yl)-amino)-4-methoxy-2-(4,7-diazaspiro-[2.5]octan-7-yl)-phenyl)acrylamide]	< 50
